Paper PMC12669278, “VDAC1-interacting proteins: binding site mapping and their derived peptides induce apoptosis and multifaceted cellular effects” (Apoptosis, 2025)

Molecular target: purified VDAC1 (Homo sapiens, UniProt P21796)
Experiment: Glass-bound peptide array probed with purified VDAC1 and anti-VDAC1 antibodies
Type: binding
Set-up: key: +: low; ++: medium; +++: high
Conditions: glass-bound peptide array incubated 4 h with purified VDAC1 (64 nM), chemiluminescence; for Spot intensity, detected using anti-N-terminus VDAC1: antibody against VDAC1 N-terminus; for Spot intensity, detected using anti-VDAC1 internal sequence: antibody against VDAC1 amino acids 150-250
Procedure: A customized peptide array was produced by INTAVIS Peptide Services (GmbH & Co. KG, Tübingen, Germany). It comprised 768 peptide sequences derived from 19 VDAC1-interacting proteins that were arrayed on a glass slide. Each peptide was composed of 25 amino acids with an overlap of 15 amino acids with the peptides before and following it.
The interaction of purified VDAC1 with glass-bound peptide arrays was assessed by washing the slide three times, 10 min each, with TBST (150 mM NaCl, 50 mM Tris/HCl, pH 7.4, 0.1% Tween-20), followed by overnight incubation with blocking buffer (TBS, pH 7.8, containing low-fat dry milk, 2.5%, w/v) at 4 °C. Then slides were incubated with purified VDAC1 in protein-interacting buffer (20 mM HEPES, 100 mM KCl, pH,7.4, PBS) for 4 h at room temperature (RT). After washing, with TBST, slides were incubated overnight at 4 °C with anti-VDAC1 antibody against a sequence of 150–250 amino acids or against the VDAC1-N-terminus. Slides were then washed with TBST, followed by the appropriate secondary anti-HRP conjugated antibody for 2 h at RT. They were washed again with TBST and developed using enhanced chemiluminescence EZ-ECL (Biological Industries), according to the manufacturer’s instructions. The signal was captured in the dark using FUSION-FX (Vilber Lourmat) software.

Sequence of purified VDAC1 (P21796 whole entry, species assumed): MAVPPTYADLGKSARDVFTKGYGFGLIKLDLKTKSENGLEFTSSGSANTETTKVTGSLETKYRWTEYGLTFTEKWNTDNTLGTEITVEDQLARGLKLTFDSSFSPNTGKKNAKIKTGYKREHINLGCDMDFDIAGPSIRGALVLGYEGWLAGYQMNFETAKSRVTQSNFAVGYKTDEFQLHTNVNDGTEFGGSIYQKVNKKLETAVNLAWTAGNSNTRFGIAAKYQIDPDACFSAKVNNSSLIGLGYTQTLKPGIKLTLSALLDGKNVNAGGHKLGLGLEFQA

| Sequence | Spot intensity, detected using anti-N-terminus VDAC1 | Spot intensity, detected using anti-VDAC1 internal sequence |
| --- | --- | --- |
| TDVLLLDVTPLSLGIETLGGVFTKL [2O19, array peptide from HSP-70] | ++ | + |
| RVVALFYFASKLVLKALCTKVPELI [1B8, array peptide from BAX] | ++ | – |
| SNTTAIAEAWARLDHKFDLMYAKRA [2B6, array peptide from tubulin alpha 1b] | ++ | – |
| RERLLGWIQDQGGWGLPLAESLKRL [1B12, array peptide from BAX] | +++ | + |
| GNLANVIRYFPTQALNFAFKDKYKQ [1F20, array peptide from ANT3] | +++ | + |
| KGLPRPKSAGTATQMRQSSSWTRVF [1A15, array peptide from BAD] | ++ | – |
| AKYDDIKKVVKQASEGPLKGILGYT [2C18, array peptide from GAPDH1] | +++ | ++ |
| PASTGAAKAVGKVIPELNGKLTGMA [2C13, array peptide from GAPDH1] | + | – |
| FRDEGGKAFFKGAWSNVLRGMGGAF [1G17, array peptide from ANT3] | + | – |
| QVSVLPEGGETPLFKQFFKNWRDPD [2H20, array peptide from gelsolin isoform b] | ++ | – |
| FPTQALNFAFKDKYKQIFLGGVDKH [1F21, array peptide from ANT3] | +++ | – |
| IFVGIKKKEERADLIAYLKKATNE [1D15, array peptide from cytochrome c] | ++ | + |
| ASIHGYLGIVELLVSLGADVNAQEP [2F17] | ++ | + |
| KFHGTVKAENGKLVINGNPITIFQE [2B20, array peptide from GAPDH1] | – | +++ |
| SSWTRVFQSWWDRNLGRGSSAPSQ [1A17, array peptide from BAD] | + | – |
| NGKLVINGNPITIFQERDPSKIKWG [2B21, array peptide from GAPDH1] | + | – |
| TEDELPYDDCVFGGQRLTL [2G6] | + | – |
| RGPTAARHQDSWNGLSHEAFRLVSR [2M21, array peptide from HSP-70] | + | – |
| HSSYPAGTEDDEGMGEEPSPFRGRS [1A9, array peptide from BAD] | ++ | – |
| YQVSPLAARLLYPYLAWLAFTTTLN [1H11, array peptide from TSPO] | – | + |
| FVDWCPTGFKVGINYQPPTVVPGGD [2B2, array peptide from tubulin alpha 1b] | + | – |
| KIISNASCTTNCLAPLAKVIHDNFG [2C6, array peptide from GAPDH1] | +++ | ++ |
| SVKRVTQDPKLQMGKKLPLHLTLPQ [1N4, array peptide from CD4] | ++ | – |
| LDIERPTYTNLNRLISQIVSSITAS [2A12, array peptide from tubulin alpha 1b] | – | ++ |
| DELYRQSLEIISRYLREQATGAKDT [2D23, array peptide from Mcl-1] | – | + |
